From ChEMBL document CHEMBL1146640, “A new 2-carbamoyl pteridine that inhibits mycobacterial FtsZ” (2004) come the findings set out here.

In test [1] the test system is Mycobacterium tuberculosis. The test is described as follows: In vitro minimum inhibitory concentration (MIC) towardsMtb H37Ra was determined using a colorimetric (Alamar blue) microdilution broth assay. The format is functional.
For test [2], the system named is Mycobacterium tuberculosis. The test is described as follows: Compound was tested for inhibition of GTP hydrolysis at a concentration of 100 uM in Mycobacterium tuberculosis (Mtb). Format: functional.
Test [3] has as its system Mycobacterium tuberculosis. The test is described as follows: Inhibitory dose required against Mycobacterium tuberculosis FtsZ polymerization. Format: functional. The following applies: read-out: ID50 (the source's name).
The target of test [4] is Tubulin alpha chain (Sus scrofa) (UniProt P02550). The test can be described thus: Percentage inhibition against human tubulin polymerization. The format is functional. The following applies: concentration not given here.
Test [5] relates to Tubulin alpha chain (Homo sapiens). The test is described as follows: Percentage inhibition against human tubulin polymerization.

In brackets after ≈: the same amount, converted by molar mass.

Chain of Tubulin alpha chain (Sus scrofa) (P02550 whole entry, looked up): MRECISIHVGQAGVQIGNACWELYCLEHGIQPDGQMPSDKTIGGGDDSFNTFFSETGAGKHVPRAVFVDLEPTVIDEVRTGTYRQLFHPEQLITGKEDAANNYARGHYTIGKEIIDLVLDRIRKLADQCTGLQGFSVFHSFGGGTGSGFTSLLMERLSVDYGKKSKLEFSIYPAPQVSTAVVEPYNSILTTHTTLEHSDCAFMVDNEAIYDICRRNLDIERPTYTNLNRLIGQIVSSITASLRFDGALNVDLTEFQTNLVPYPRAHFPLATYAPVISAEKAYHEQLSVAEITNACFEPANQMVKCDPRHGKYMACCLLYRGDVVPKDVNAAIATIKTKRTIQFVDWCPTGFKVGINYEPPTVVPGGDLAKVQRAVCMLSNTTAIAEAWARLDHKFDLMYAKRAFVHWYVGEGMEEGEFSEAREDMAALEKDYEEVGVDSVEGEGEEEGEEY

Consider `CCOC(=O)Nc1nc(NC(C)CCCN(CC)CC)c2nc(-c3ccccc3)c(-c3ccccc3)nc2n1` (stereo not drawn), for which the minimal inhibitory concentration (MIC) – broadly, the lowest concentration found to suppress growth – in test [1] was 2 µg/mL (≈ 3.79 µM). The Hydrolysis in test [2] stood at 23%. In test [3], the IC50 is 38.1 µM. Further, in test [4], the inhibition – broadly, the relative decrease from the control value, in per cent – is 24%.

On to `CCOC(=O)Nc1cc(NC(C)CCCN(CC)CC)c2nc(-c3ccccc3)c(-c3ccccc3)nc2n1` (stereo not drawn), for which the MIC in test [1] was greater than 0.25 µg/mL. Further, the Hydrolysis in test [2] came to 35%. Further, the inhibition entry in test [5] was “No inhibition”. Further, the IC50 in test [3] turned out to be 34.2 µM.
